Source: PubChem BioAssay AID1259407 (Chemical Carcinogenesis Research Information System (CCRIS), 2018)
Activity calls are given as the source filed them. How the calls were made is not given here.

System: CCRIS mutagenicity, Ames/micronucleus/aberration tests
Test: CCRIS mutagenicity studies

Which results are given for `O=Cc1ccccc1`?
mutagenic call (End Point: IN VITRO CHROMOSOMAL ABERRATIONS, Test System: CHINESE HAMSTER OVARY CELLS, Metabolic Activation: NONE): inactive; negative; mutagenic call (End Point: IN VITRO CHROMOSOMAL ABERRATIONS, Test System: CHINESE HAMSTER OVARY CELLS, Metabolic Activation: RAT, LIVER, S-9, AROCLOR 1254): inactive; negative; mutagenic call (End Point: In vitro chromosomal aberrations, Test System: Chinese hamster lung (CHL/IU) cells, Metabolic Activation: Rat, Liver, S9, Phenobarbital and 5,6-benzoflavone): inactive; negative. weak positive response for ploidy is not dose related.; mutagenic call (Test System: AMES SALMONELLA TYPHIMURIUM, Strain/Indicator: TA97, Metabolic Activation: NONE, Method: PREINCUBATION): inactive; negative; mutagenic call (Test System: AMES SALMONELLA TYPHIMURIUM, Strain/Indicator: TA97, Metabolic Activation: RAT, LIVER, S-9, AROCLOR 1254, Method: PREINCUBATION): inactive; negative; mutagenic call (Test System: AMES SALMONELLA TYPHIMURIUM, Strain/Indicator: TA98, Metabolic Activation: HAMSTER, LIVER, S-9, AROCLOR 1254 (10%), Method: PREINCUBATION): inactive; negative; mutagenic call (Test System: AMES SALMONELLA TYPHIMURIUM, Strain/Indicator: TA98, Metabolic Activation: NONE, Method: FLUCTUATION (MICROTITER)): inactive; negative; mutagenic call (Test System: AMES SALMONELLA TYPHIMURIUM, Strain/Indicator: TA98, Metabolic Activation: NONE, Method: PREINCUBATION): inactive; negative; mutagenic call (Test System: AMES SALMONELLA TYPHIMURIUM, Strain/Indicator: TA98, Metabolic Activation: RAT LIVER S-9, AROCLOR 1254, Method: FLUCTUATION (MICROTITER)): inactive; negative; mutagenic call (Test System: AMES SALMONELLA TYPHIMURIUM, Strain/Indicator: TA98, Metabolic Activation: RAT LIVER S-9, PHENOBARBITAL AND BETA-NAPHTHOFLAVONE, Method: PREINCUBATION): inactive; negative; mutagenic call (Test System: AMES SALMONELLA TYPHIMURIUM, Strain/Indicator: TA98, Metabolic Activation: RAT, LIVER, S-9, AROCLOR 1254 (10%), Method: PREINCUBATION): inactive; negative; mutagenic call (Test System: AMES SALMONELLA TYPHIMURIUM, Strain/Indicator: TA100, Metabolic Activation: HAMSTER, LIVER, S-9, AROCLOR 1254 (10%), Method: PREINCUBATION): inactive; negative; mutagenic call (Test System: AMES SALMONELLA TYPHIMURIUM, Strain/Indicator: TA100, Metabolic Activation: MOUSE, LIVER, S-9, AROCLOR 1254 (10%), Method: PREINCUBATION): inactive; negative; mutagenic call (Test System: AMES SALMONELLA TYPHIMURIUM, Strain/Indicator: TA100, Metabolic Activation: RAT LIVER S-9, AROCLOR 1254, Method: PREINCUBATION): inactive; negative; mutagenic call (Test System: AMES SALMONELLA TYPHIMURIUM, Strain/Indicator: TA100, Metabolic Activation: RAT LIVER S-9, PHENOBARBITAL AND BETA-NAPHTHOFLAVONE, Method: PREINCUBATION): inactive; negative; mutagenic call (Test System: AMES SALMONELLA TYPHIMURIUM, Strain/Indicator: TA100, Metabolic Activation: RAT, LIVER, S-9, AROCLOR 1254 (10%), Method: PREINCUBATION): inactive; negative; mutagenic call (Test System: AMES SALMONELLA TYPHIMURIUM, Strain/Indicator: TA102, Metabolic Activation: MOUSE, LIVER, S-9, AROCLOR 1254 (10%), Method: PREINCUBATION): inactive; negative; mutagenic call (Test System: AMES SALMONELLA TYPHIMURIUM, Strain/Indicator: TA102, Metabolic Activation: NONE, Method: PREINCUBATION): inactive; negative; mutagenic call (Test System: AMES SALMONELLA TYPHIMURIUM, Strain/Indicator: TA102, Metabolic Activation: RAT LIVER S-9, AROCLOR 1254, Method: PREINCUBATION): inactive; negative; mutagenic call (Test System: AMES SALMONELLA TYPHIMURIUM, Strain/Indicator: TA102, Metabolic Activation: RAT, LIVER, S-9, AROCLOR 1254 (10%), Method: PREINCUBATION): inactive; negative; mutagenic call (Test System: AMES SALMONELLA TYPHIMURIUM, Strain/Indicator: TA102, Metabolic Activation: RAT, LIVER, S-9, AROCLOR 1254, Method: PREINCUBATION): inactive; negative; mutagenic call (Test System: AMES SALMONELLA TYPHIMURIUM, Strain/Indicator: TA104, Metabolic Activation: MOUSE, LIVER, S-9, AROCLOR 1254 (10%), Method: PREINCUBATION): inactive; negative; mutagenic call (Test System: AMES SALMONELLA TYPHIMURIUM, Strain/Indicator: TA104, Metabolic Activation: NONE, Method: PREINCUBATION): inactive; negative; mutagenic call (Test System: AMES SALMONELLA TYPHIMURIUM, Strain/Indicator: TA104, Metabolic Activation: RAT LIVER S-9, AROCLOR 1254, Method: PREINCUBATION): inactive; negative; mutagenic call (Test System: AMES SALMONELLA TYPHIMURIUM, Strain/Indicator: TA104, Metabolic Activation: RAT, LIVER, S-9, AROCLOR 1254 (10%), Method: PREINCUBATION): inactive; negative; mutagenic call (Test System: AMES SALMONELLA TYPHIMURIUM, Strain/Indicator: TA1535, Metabolic Activation: HAMSTER, LIVER, S-9, AROCLOR 1254 (10%), Method: PREINCUBATION): inactive; negative; mutagenic call (Test System: AMES SALMONELLA TYPHIMURIUM, Strain/Indicator: TA1535, Metabolic Activation: NONE, Method: PREINCUBATION): inactive; negative; mutagenic call (Test System: AMES SALMONELLA TYPHIMURIUM, Strain/Indicator: TA1535, Metabolic Activation: RAT LIVER S-9, PHENOBARBITAL AND BETA-NAPHTHOFLAVONE, Method: PREINCUBATION): inactive; negative; mutagenic call (Test System: AMES SALMONELLA TYPHIMURIUM, Strain/Indicator: TA1535, Metabolic Activation: RAT, LIVER, S-9, AROCLOR 1254 (10%), Method: PREINCUBATION): inactive; negative; mutagenic call (Test System: AMES SALMONELLA TYPHIMURIUM, Strain/Indicator: TA1537, Metabolic Activation: HAMSTER, LIVER, S-9, AROCLOR 1254 (10%), Method: PREINCUBATION): inactive; negative; mutagenic call (Test System: AMES SALMONELLA TYPHIMURIUM, Strain/Indicator: TA1537, Metabolic Activation: NONE, Method: FLUCTUATION (MICROTITER)): inactive; negative; mutagenic call (Test System: AMES SALMONELLA TYPHIMURIUM, Strain/Indicator: TA1537, Metabolic Activation: NONE, Method: PREINCUBATION): inactive; negative; mutagenic call (Test System: AMES SALMONELLA TYPHIMURIUM, Strain/Indicator: TA1537, Metabolic Activation: RAT LIVER S-9, AROCLOR 1254, Method: FLUCTUATION (MICROTITER)): inactive; negative; mutagenic call (Test System: AMES SALMONELLA TYPHIMURIUM, Strain/Indicator: TA1537, Metabolic Activation: RAT LIVER S-9, PHENOBARBITAL AND BETA-NAPHTHOFLAVONE, Method: PREINCUBATION): inactive; negative; mutagenic call (Test System: AMES SALMONELLA TYPHIMURIUM, Strain/Indicator: TA1537, Metabolic Activation: RAT, LIVER, S-9, AROCLOR 1254 (10%), Method: PREINCUBATION): inactive; negative; mutagenic call (Test System: AMES SALMONELLA TYPHIMURIUM, Strain/Indicator: TA7001, Metabolic Activation: NONE, Method: FLUCTUATION (MICROTITER)): inactive; negative; mutagenic call (Test System: AMES SALMONELLA TYPHIMURIUM, Strain/Indicator: TA7001, Metabolic Activation: RAT LIVER S-9, AROCLOR 1254, Method: FLUCTUATION (MICROTITER)): inactive; negative; mutagenic call (Test System: AMES SALMONELLA TYPHIMURIUM, Strain/Indicator: TA7002, Metabolic Activation: NONE, Method: FLUCTUATION (MICROTITER)): inactive; negative; mutagenic call (Test System: AMES SALMONELLA TYPHIMURIUM, Strain/Indicator: TA7002, Metabolic Activation: RAT LIVER S-9, AROCLOR 1254, Method: FLUCTUATION (MICROTITER)): inactive; negative; mutagenic call (Test System: AMES SALMONELLA TYPHIMURIUM, Strain/Indicator: TA7003, Metabolic Activation: NONE, Method: FLUCTUATION (MICROTITER)): inactive; negative; mutagenic call (Test System: AMES SALMONELLA TYPHIMURIUM, Strain/Indicator: TA7003, Metabolic Activation: RAT LIVER S-9, AROCLOR 1254, Method: FLUCTUATION (MICROTITER)): inactive; negative; mutagenic call (Test System: AMES SALMONELLA TYPHIMURIUM, Strain/Indicator: TA7004, Metabolic Activation: NONE, Method: FLUCTUATION (MICROTITER)): inactive; negative; mutagenic call (Test System: AMES SALMONELLA TYPHIMURIUM, Strain/Indicator: TA7004, Metabolic Activation: RAT LIVER S-9, AROCLOR 1254, Method: FLUCTUATION (MICROTITER)): inactive; negative; mutagenic call (Test System: AMES SALMONELLA TYPHIMURIUM, Strain/Indicator: TA7005, Metabolic Activation: NONE, Method: FLUCTUATION (MICROTITER)): inactive; negative; mutagenic call (Test System: AMES SALMONELLA TYPHIMURIUM, Strain/Indicator: TA7005, Metabolic Activation: RAT LIVER S-9, AROCLOR 1254, Method: FLUCTUATION (MICROTITER)): active; positive; mutagenic call (Test System: AMES SALMONELLA TYPHIMURIUM, Strain/Indicator: TA7006, Metabolic Activation: NONE, Method: FLUCTUATION (MICROTITER)): inactive; negative; mutagenic call (Test System: AMES SALMONELLA TYPHIMURIUM, Strain/Indicator: TA7006, Metabolic Activation: RAT LIVER S-9, AROCLOR 1254, Method: FLUCTUATION (MICROTITER)): inactive; negative; mutagenic call (Test System: E.COLI, Strain/Indicator: WP2UVRA/PKM101, Metabolic Activation: NONE, Method: PREINCUBATION): inactive; negative; mutagenic call (Test System: E.COLI, Strain/Indicator: WP2UVRA/PKM101, Metabolic Activation: RAT LIVER S-9, PHENOBARBITAL AND BETA-NAPHTHOFLAVONE, Method: PREINCUBATION): inactive; negative; mutagenic call (Test System: MOUSE LYMPHOMA, Strain/Indicator: L5178Y (TK+/TK-), Metabolic Activation: NONE, Method: SUSPENSION/PLATE): active; positive
